In patent publication US9370569B2 (priority 2014, dated 2016):

These molecules were tested against influenza RNA polymerase (Influenza A virus, UniProt P03431) (assay: Influenza polymerase assay (radiolabeled nucleotide incorporation)). Conditions: nucleotide triphosphates in influenza polymerase assay.
Format: biochemical

Question: O=c1ccn([C@@H]2O[C@@](COP(=O)(O)OP(=O)(O)OP(=O)(O)O)(C(F)F)[C@@H](O)[C@H]2O)c(=O)[nH]1 [TPP-1] was tested. Which IC50 did it give?
Answer: 10 to 100 µM

Question: For O=c1[nH]c(=O)n([C@@H]2O[C@@](COP(=O)(O)OP(=O)(O)OP(=O)(O)O)(C(F)F)[C@@H](O)[C@H]2O)cc1Cl [TPP-2], which IC50 is on record?
Answer: 10 to 100 µM

Question: How did the IC50 turn out when O=c1[nH]c(=O)n([C@@H]2O[C@@](COP(=O)(O)OP(=O)(O)OP(=O)(O)O)(C(F)F)[C@@H](O)[C@H]2O)cc1F [TPP-3] was run?
Answer: 10 to 100 µM

Question: For Nc1ccn([C@@H]2O[C@@](COP(=O)(O)OP(=O)(O)OP(=O)(O)O)(C(F)F)[C@@H](O)[C@H]2O)c(=O)n1 [TPP-4], which IC50 is on record?
Answer: < 10 µM

Question: Which IC50 does the source give for Nc1nc(=O)n([C@@H]2O[C@@](COP(=O)(O)OP(=O)(O)OP(=O)(O)O)(C(F)F)[C@@H](O)[C@H]2O)cc1Cl [TPP-5] here?
Answer: 10 to 100 µM

Question: Nc1nc(=O)n([C@@H]2O[C@@](COP(=O)(O)OP(=O)(O)OP(=O)(O)O)(C(F)F)[C@@H](O)[C@H]2O)cc1F [TPP-6] was tested. Which IC50 did it give?
Answer: < 10 µM

Question: For Nc1nc(N)c2ncn([C@@H]3O[C@@](COP(=O)(O)OP(=O)(O)OP(=O)(O)O)(C(F)F)[C@@H](O)[C@H]3O)c2n1 [TPP-7], which IC50 is on record?
Answer: > 100 µM

Question: For Nc1ncnc2c1ncn2[C@@H]1O[C@@](COP(=O)(O)OP(=O)(O)OP(=O)(O)O)(C(F)F)[C@@H](O)[C@H]1O [TPP-8], which IC50 is on record?
Answer: < 10 µM

Question: Which IC50 does the source give for Nc1ncnc2ncn([C@@H]3O[C@@](COP(=O)(O)OP(=O)(O)OP(=O)(O)O)(C(F)F)[C@@H](O)[C@H]3O)c12 [TPP-9] here?
Answer: < 10 µM

Question: Which IC50 does the source give for Nc1nc2c(ncn2[C@@H]2O[C@@](COP(=O)(O)OP(=O)(O)OP(=O)(O)O)(C(F)F)[C@@H](O)[C@H]2O)c(=O)[nH]1 [TPP-10] here?
Answer: < 10 µM
